Data published in PubChem BioAssay (NCI).
“And” between values parts separate entries of the source, which are not always exact repeats. Identical values can stand only once.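 Values below derive from 48-hour exposures of cells grown in 96-well plates, with endpoints linearly interpolated between the two concentrations bracketing the appropriate inhibition level. Abbreviation: GI50, concentration required for 50% inhibition of growth. The concentration for full growth arrest is given as TGI.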

Experiments:
Test in all cases: inhibition of tumour cell growth, NCI panel, 48 h
SNB-19 CNS = system: SNB-19 CNS
NCI-H460 lung = system: NCI-H460 lung
MDA-MB-231 breast = system: MDA-MB-231 breast
MALME-3M melanoma = system: MALME-3M melanoma
ACHN renal = system: ACHN renal
SK-MEL-28 melanoma = system: SK-MEL-28 melanoma
PC-3 prostate = system: PC-3 prostate
SNB-75 CNS = system: SNB-75 CNS
HL-60(TB) leukemia = system: HL-60(TB) leukemia
HCC-2998 colon = system: HCC-2998 colon

Row | SMILES | GI50 (SNB-19 CNS) | TGI (SNB-19 CNS) | GI50 (NCI-H460 lung) | TGI (NCI-H460 lung) | GI50 (MDA-MB-231 breast) | TGI (MDA-MB-231 breast) | GI50 (MALME-3M melanoma) | TGI (MALME-3M melanoma) | GI50 (ACHN renal) | TGI (ACHN renal) | GI50 (SK-MEL-28 melanoma) | TGI (SK-MEL-28 melanoma) | GI50 (PC-3 prostate) | TGI (PC-3 prostate) | GI50 (SNB-75 CNS) | TGI (SNB-75 CNS) | GI50 (HL-60(TB) leukemia) | TGI (HL-60(TB) leukemia) | GI50 (HCC-2998 colon) | TGI (HCC-2998 colon)
1 | CCOC(=O)Nc1nc2ccc(OC)cc2s1 | > 100 µM | > 100 µM | > 100 µM | > 100 µM | > 100 µM | > 100 µM | > 100 µM | > 100 µM | > 100 µM | > 100 µM | > 100 µM | > 100 µM | > 100 µM | > 100 µM | > 100000 nM | > 100 µM | > 100 µM | > 100 µM | > 100 µM | > 100 µM
2 | COc1cc(OC)c(C(=O)/C=C/c2cc3c(cc2OCc2ccccc2)OC(C)(C)CC3)cc1CC=C(C)C | 6.22 µM | 17.3 µM | 4.38 µM | 11.8 µM | 10.1 µM | > 25 µM | 4.89 µM | 12.6 µM | 5.42 µM | 14.5 µM | 4.07 µM | 9.23 µM | 5.75 µM | > 25 µM | 2440 nM | 13.1 µM | 5.43 µM | 17.1 µM | 8.91 µM | > 25 µM
3 | [C](#Cc1ccccc1)[Hg][C]#Cc1ccccc1 | 47.3 µM | > 100 µM | 86.2 µM | > 100 µM | 20.8 µM | 44.8 µM | 27.9 µM | 54.7 µM | 21.1 µM | 41.6 µM | 14.7 µM | 36.2 µM | 30.6 µM | 87.5 µM | > 100000 nM | > 100 µM | 27.7 µM | > 100 µM | 47.7 µM | 82.6 µM
4 | COc1ccc2c(=O)cc(-c3ccccc3)[nH]c2c1 | 1.75 µM | > 100 µM | 0.397 µM | > 42 µM | 1.92 µM | > 100 µM | 0.684 µM | > 100 µM | 4.22 µM | > 100 µM | 7.84 µM | > 100 µM | 0.389 µM | > 100 µM | – | > 100 µM | 0.256 µM | 1.19 µM | 1.27 µM | 8.9 µM
5 | Cc1nc(-c2ccccc2)n2nc(NCCCN3CCOCC3)ncc12 | > 25 µM | > 25 µM | 21.2 µM | > 25 µM | > 25 µM | > 25 µM | > 17.9 µM | > 25 µM | 10.4 µM | > 25 µM | > 25 µM | > 25 µM | > 25 µM | > 25 µM | > 11900 nM | > 25 µM | > 25 µM | > 25 µM | > 25 µM | > 25 µM
6 | CC(C)c1cnn2c(NCc3ccccc3)cc(NC[C@H]3CCNC[C@@H]3O)nc12 | 0.495 µM and 0.611 µM | 9.76 µM and 8.48 µM | 0.0583 µM and 0.0817 µM | 1.7 µM and 3.31 µM | 0.388 µM and 0.536 µM | 7.52 µM and 3.67 µM | 0.805 µM and 0.3 µM | 2.6 µM and 2.72 µM | 0.833 µM and 1.55 µM | 10.5 µM and 9.73 µM | 0.388 µM and 0.343 µM | 2.43 µM and 2.41 µM | 0.363 µM and 0.587 µM | 6.73 µM and 10.4 µM | 515 nM and 1320 nM | 2.04 µM and 2.83 µM | 0.132 µM and 0.297 µM | 0.584 µM and 1.71 µM | 0.534 µM and 0.645 µM | 5.55 µM and 3.51 µM
7 | COc1ccc(-c2ccncc2)cc1C(N)=O | > 25 µM | > 25 µM | > 25 µM | > 25 µM | > 25 µM | > 25 µM | > 25 µM | > 25 µM | > 25 µM | > 25 µM | > 25 µM | > 25 µM | > 25 µM | > 25 µM | > 25000 nM | > 25 µM | > 25 µM | > 25 µM | > 25 µM | > 25 µM
